# In US8772244B2, “Tubulin inhibitors” (R&D Biopharmaceuticals GmbH, priority 2009, dated 2014):
# Legend:
# Assay type in all cases: cell-based
# MCF-7 = assay: BrdU-Assay, IC-50 against cancer cell line MCF-7; conditions: Homo sapiens, MCF7; MCF-7, BrdU-Assay
# Source text: (§1) Determination of the IC-50 Concentration Against Various Cancer Cell Lines
# (§2) The activity of some representative example compounds of the present invention has been determined with the BrdU-Assay as described in: Porstmann T., Ternynck T., Avrameas S. (1985) “Quantification of 5-bromo-2-deoxyuridine incorporation into DNA: an enzyme immunoassay for the assessment of the lymphoid cell proliferative response.” J. Immunol. Methods 82: 169-179.
# MCF-7 TX200 = assay: BrdU-Assay, IC-50 against cancer cell line MCF-7 TX200; conditions: Homo sapiens; MCF-7 TX200, BrdU-Assay
# Source text: as §1, §2
# Skov-3 = assay: BrdU-Assay, IC-50 against cancer cell line Skov-3; conditions: Homo sapiens, SK-OV-3; Skov-3, BrdU-Assay
# Source text: as §1, §2
# HCT-116 = assay: BrdU-Assay, IC-50 against cancer cell line HCT-116; conditions: Homo sapiens; HCT-116, BrdU-Assay
# Source text: as §1, §2
# MCF-7 VP = assay: BrdU-Assay, IC-50 against cancer cell line MCF-7 VP; conditions: Homo sapiens, MCF7-VP
# Source text: as §1, §2
# MCF-7 MX100 = assay: BrdU-Assay, IC-50 against cancer cell line MCF-7 MX100; conditions: MCF7/MX100; MCF-7 MX100, BrdU-Assay
# Source text: as §1, §2
SMILES,IC50 (MCF-7) [nM],IC50 (MCF-7 TX200) [nM],IC50 (Skov-3) [nM],IC50 (HCT-116) [nM],IC50 (MCF-7 VP) [nM],IC50 (MCF-7 MX100) [nM]
CCCN(C(=O)C(NC(=O)C1CCCCN1C)[C@@H](C)CC)[C@H](C[C@@H](OC(C)=O)c1nc(C(=O)N[C@H](CO)Cc2ccccc2)cs1)C(C)C (stereo partly drawn) [MSRD390],0.27,24.4,1.06,1.1,0.54,0.2
CC[C@H](C)C(NC(=O)C1CCCCN1C)C(=O)N(C)[C@H](C[C@@H](OC(C)=O)c1nc(C(=O)N[C@@H](Cc2ccccc2)C[C@H](C)CO)cs1)C(C)C (stereo partly drawn) [MSRD345],0.4,50.6,1.18,1.35,1.2,0.28
CCCN(C(=O)C(NC(=O)C1CCCCN1C)[C@@H](C)CC)[C@H](C[C@@H](OCOC)c1nc(C(=O)N[C@@H](Cc2ccccc2)C[C@H](C)CO)cs1)C(C)C (stereo partly drawn) [MSRD368],3.91,322,29.9,41.1,6.38,4.01
CC[C@H](C)C(NC(=O)C1CCCCN1C)C(=O)N[C@H](C[C@@H](OC(C)=O)c1nc(C(=O)N[C@@H](Cc2ccccc2)C[C@H](C)CO)cs1)C(C)C (stereo partly drawn) [SDRD28],0.55,370,3.35,4.31,3.04,1.41
CCCN(C(=O)C(NC(=O)C1CCCCN1C)[C@@H](C)CC)[C@H](C[C@@H](OC(C)=O)c1nc(C(=O)N[C@@H](Cc2ccccc2)C[C@H](C)CO)cs1)C(C)C (stereo partly drawn) [MSRD334],0.57,15.6,1.05,1.06,0.88,0.62
